Where a name gives a salt, the structure may show the parent alone.
Experiment: in vitro
Conditions: rat, gh3-tre-luc cells, AC50 (uM) modified / 1000

SMILES	CC50 at 24 h
CCOc1ccccc1OCC [1,2-Diethoxybenzene]	> 90 µM
C[N+](C)(C)CC[N+]1(C)Cc2c(Cl)c(Cl)c(Cl)c(Cl)c2C1 [Chlorisondamine chloride]	> 50 µM
CCCCC(CC)COC(=O)CCCCCCCCC(=O)OCC(CC)CCCC (centres unmarked) [Bis(2-ethylhexyl) decanedioate]	> 90 µM
C1COC(NC(C2CC2)C2CC2)=N1 [Rilmenidine]	> 50 µM
CNC(=O)[C@H](Cc1c[nH]c2ccccc12)NC(=O)[C@@H](CC(=O)NO)CC(C)C [Ilomastat]	1.28 µM
Cc1c(O)cc2c(c1C)O[C@](C)(CCC[C@H](C)CCC[C@H](C)CCCC(C)C)CC2 [(+)-gamma-Tocopherol]	> 50 µM
CC(=O)CC(=O)OC(C)(C)C [tert-Butyl 3-oxobutanoate]	> 90 µM
O=C(O)CCC(=O)Nc1ccc(S(=O)(=O)Nc2nccs2)cc1 [Succinylsulfathiazole]	> 20 µM
C=C(C)C(=O)OCC1CO1 (centres unmarked) [Glycidyl methacrylate]	> 90 µM
COc1cc(C(=O)NC2CCN(C)CC2)ccc1Nc1ncc2c(n1)N(C1CCCC1)CC(F)(F)C(=O)N2C [PharmaGSID_48511]	1.83 µM
CCCCN(CCCC)C(=O)N(CCCC)CCCC [1,1,3,3-Tetrabutylurea]	> 90 µM
O=C1OC2(c3ccc(O)cc3Oc3cc(O)ccc32)c2ccccc21 [Fluorescein]	> 50 µM
CCC(C)Nc1c([N+](=O)[O-])cc(C(C)(C)C)cc1[N+](=O)[O-] (centres unmarked) [Butralin]	68.1 µM
O=C(O)c1cc(Br)c(O)c(Br)c1 [3,5-Dibromo-4-hydroxybenzoic acid]	> 90 µM
Nc1ccc(O)c([N+](=O)[O-])c1 [4-Amino-2-nitrophenol]	> 90 µM
Nc1c(Cl)c(Cl)nc(C(=O)O)c1Cl [Picloram]	> 100 µM
CCC(=O)OCC(=O)[C@@]1(OC(=O)CC)[C@@H](C)C[C@H]2[C@@H]3CCC4=CC(=O)C=C[C@]4(C)[C@@]3(Cl)[C@@H](O)C[C@@]21C [Beclazone]	> 50 µM
CC(=O)OCC(=O)[C@@]12OC3(CCCC3)O[C@@H]1C[C@H]1[C@@H]3CCC4=CC(=O)C=C[C@]4(C)[C@@]3(F)[C@@H](O)C[C@@]12C [Amcinonide]	> 50 µM
Oc1cccc(Nc2ccccc2)c1 [3-Hydroxy-N-phenylaniline]	> 100 µM
CCC(C)(O)CCC=C(C)C (centres unmarked) [3,7-Dimethyloct-6-en-3-ol]	> 90 µM
Cc1onc(-c2ccccc2)c1-c1ccc(S(N)(=O)=O)cc1 [Valdecoxib]	> 50 µM
CC(=O)OCC(=O)[C@@]1(O)CC[C@H]2[C@@H]3CCC4=CC(=O)CC[C@]4(C)[C@H]3[C@@H](O)C[C@@]21C [Hydrocortisone acetate]	> 50 µM

SMILES	CC50 at 24 h
O=C(Nc1ccccc1)OCC(CN1CCCCC1)OC(=O)Nc1ccccc1 (centres unmarked) [Diperodon hydrochloride]	10.5 µM
NC(=O)c1ncn([C@@H]2O[C@H](CO)[C@@H](O)[C@H]2O)c1O [Mizoribine]	> 50 µM
Cc1cccc(C)c1O [2,6-Dimethylphenol]	> 90 µM
Cc1ccccc1OCC(=O)O [(2-Methylphenoxy)acetic acid]	> 90 µM
CN(C)c1nc(=O)n(C2CCCCC2)c(=O)n1C [Hexazinone]	> 100 µM
C=CCn1cc[n+](C)c1 [1-Allyl-3-methylimidazolium chloride]	> 90 µM
CCCCC(CC)COP(=O)(O)OCC(CC)CCCC (centres unmarked) [Bis(2-ethylhexyl) phosphate]	63.4 µM
O=C(O)CCC(=O)OC[C@@H](NC(=O)C(Cl)Cl)[C@H](O)c1ccc([N+](=O)[O-])cc1 [Chloramphenicol sodium succinate]	> 50 µM
CCOCCOC(C)=O [2-Ethoxyethyl acetate]	> 90 µM
CN(C)c1ccc(O)c2c1C[C@H]1C[C@H]3[C@H](N(C)C)C(O)=C(C(N)=O)C(=O)[C@@]3(O)C(O)=C1C2=O [Minocycline hydrochloride]	> 90 µM
C=CCCCCCCCCCC [1-Dodecene]	> 90 µM
C=CC(C)(CCC=C(C)C)OC=O (centres unmarked) [Linalyl formate]	> 90 µM
CC[N+](CC)(CC(=O)Nc1c(C)cccc1C)Cc1ccccc1 [Denatonium benzoate]	> 50 µM
Cc1cc(N)c2ccccc2[n+]1CCCCCCCCCC[n+]1c(C)cc(N)c2ccccc21 [Dequalinium dichloride]	12.4 µM
CCCCN1CCCC1C(=O)Nc1c(C)cc(C)cc1C (centres unmarked) [Bumecaine]	> 50 µM
CC(O)(P(=O)(O)O)P(=O)(O)O [Etidronic acid]	> 90 µM
Cc1cc(Cl)ccc1N [4-Chloro-2-methylaniline hydrochloride]	> 90 µM
c1cnc(N2CCN(Cc3ccc4c(c3)OCO4)CC2)nc1 [Piribedil]	> 50 µM
CC(=O)O[C@H](CC(=O)[O-])C[N+](C)(C)C [Acetyl-L-carnitine hydrochloride]	> 90 µM
CC(=O)CC(=O)N(C)C [N,N-Dimethylacetoacetamide]	> 90 µM
CC1(C)S[C@@H]2[C@H](NC(=O)[C@H](N)c3ccccc3)C(=O)N2[C@H]1C(=O)OCOC(=O)[C@@H]1N2C(=O)C[C@H]2S(=O)(=O)C1(C)C [Sultamicillin tosylate]	> 50 µM
CC[C@@H](N)CO [(2R)-2-Aminobutan-1-ol]	> 100 µM

SMILES	CC50 at 24 h
Cl/C=C\C[N+]12CN3CN(CN(C3)C1)C2 [Chloroallyl methenamine chloride]	> 90 µM
CC(C)C[C@@H](N)C(=O)O [D-Leucine]	> 50 µM
c1ccc(CNCc2ccccc2)cc1 [Dibenzylamine]	> 90 µM
CC[C@@H](C(=O)O)[C@@H]1O[C@@H]([C@@H](C)[C@H](O)[C@H](C)C(=O)[C@H](CC)[C@H]2O[C@]3(C=C[C@@H](O)[C@]4(CC[C@@](C)([C@H]5CC[C@](O)(CC)[C@H](C)O5)O4)O3)[C@H](C)C[C@@H]2C)[C@@H](C)C[C@@H]1C [Narasin]	0.153 µM
COC(=O)c1cccc(C(=O)OC)c1 [Dimethyl isophthalate]	> 90 µM
Cc1ccc(S(=O)(=O)N[C@@H](CCCCN)C(=O)CCl)cc1 [N-alpha-p-Tosyl-L-lysine chloromethyl ketone hydrochloride]	15 µM
COc1ccccc1OC(=O)Oc1ccccc1OC [Guaiacol carbonate]	> 50 µM
CC(C)(C)NCCNC(C)(C)C [N,N'-Di-tert-butylethane-1,2-diamine]	> 90 µM
C=CCOc1c(Br)cc(C(C)(C)c2cc(Br)c(OCC=C)c(Br)c2)cc1Br [Tetrabromobisphenol A diallyl ether]	> 50 µM
CCCOC(=O)NCCCN(C)C [Propamocarb hydrochloride]	> 90 µM
CC1(N)CCC(C(C)(C)N)CC1 (centres unmarked) [1,8-Diamino-p-menthane]	> 90 µM
COP(=S)(OC)Oc1ccc([N+](=O)[O-])c(C)c1 [Fenitrothion]	> 90 µM
CC(COCCO)OCCO (centres unmarked) [Pluronic F-127]	> 80 µM
ICCc1ccccc1 [2-Iodoethylbenzene]	> 90 µM
CC[C@@H](CO)NCCN[C@@H](CC)CO [Ethambutol dihydrochloride]	> 20 µM
CC1CC[C@@H]2C[C@H]1C2(C)C (some centres unmarked) [Pinane]	> 90 µM
O=CCCCC=O [Glutaraldehyde]	> 90 µM
O=c1c(-c2ccc(O)cc2)coc2cc(O)ccc12 [Daidzein]	> 90 µM
CCCCCCCCCCCCCCCCOS(=O)(=O)O [Sodium hexyldecyl sulfate]	50.6 µM
O=c1[nH]nc(-c2ccc([N+](=O)[O-])o2)o1 [5-(5-Nitro-2-furyl)-1,3,4-oxadiazole-2-ol]	67.5 µM
O=C1C=CCCC1 [2-Cyclohexen-1-one]	> 90 µM
NCCNCCO [N-(Hydroxyethyl)ethylenediamine]	> 90 µM

Same assay, conditions: rat, gh3-tre-luc cells, AC50 (uM) modified / 1000, Tox21_110001=Tox21_111785; viability, 1 nM T3 present, 24 h

SMILES	CC50 at 24 h
COc1ccc(C(=O)c2c(C)n(CCN3CCOCC3)c3ccccc23)cc1 [Pravadoline]	> 50 µM

Same assay, conditions: rat, gh3-tre-luc cells, AC50 (uM) modified / 1000, Tox21_110001=Tox21_200660; viability, 1 nM T3 present, 24 h

SMILES	CC50 at 24 h
C[N+](C)(C)C [Tetramethylammonium chloride]	> 90 µM

Same assay, conditions: rat, gh3-tre-luc cells, AC50 (uM) modified / 1000, Tox21_110001=Tox21_200778; viability, 1 nM T3 present, 24 h

SMILES	CC50 at 24 h
O=C(Cl)C(Cl)Cl [Dichloroacetyl chloride]	> 90 µM

Same assay, conditions: rat, gh3-tre-luc cells, AC50 (uM) modified / 1000, Tox21_110001=Tox21_202220; viability, 1 nM T3 present, 24 h

SMILES	CC50 at 24 h
Oc1ccc(-c2ccccc2)cc1 [4-Phenylphenol]	62.2 µM

Same assay, conditions: rat, gh3-tre-luc cells, AC50 (uM) modified / 1000, Tox21_110001=Tox21_300718; viability, 1 nM T3 present, 24 h

SMILES	CC50 at 24 h
CCN(CC)c1nc(C)cc(OP(=S)(OC)OC)n1 [Pirimiphos-methyl]	> 90 µM

Same assay, conditions: rat, gh3-tre-luc cells, AC50 (uM) modified / 1000, Tox21_110001=Tox21_300725; viability, 1 nM T3 present, 24 h

SMILES	CC50 at 24 h
OCC(c1ccc(Cl)cc1)c1ccc(Cl)cc1 [2,2-Bis(4-chlorophenyl)ethanol]	> 90 µM

Same assay, conditions: rat, gh3-tre-luc cells, AC50 (uM) modified / 1000, Tox21_110001=Tox21_300997; viability, 1 nM T3 present, 24 h

SMILES	CC50 at 24 h
C/C(=N\NC(=O)Nc1cc(F)cc(F)c1)c1ncccc1C(=O)O [Diflufenzopyr-sodium]	> 90 µM

Same assay, conditions: rat, gh3-tre-luc cells, AC50 (uM) modified / 1000, Tox21_110001=Tox21_301361; viability, 1 nM T3 present, 24 h

SMILES	CC50 at 24 h
CNC(=O)Oc1ccccc1C(C)C [Isoprocarb]	> 90 µM

Same assay, conditions: rat, gh3-tre-luc cells, AC50 (uM) modified / 1000, Tox21_110001=Tox21_302231; viability, 1 nM T3 present, 24 h

SMILES	CC50 at 24 h
O=c1c2ccccc2c(=O)c2c1cc(Cl)c1[nH]c3c([nH]c12)c(Cl)cc1c(=O)c2ccccc2c(=O)c13 [D&C Blue No. 9]	> 90 µM

Same assay, conditions: rat, gh3-tre-luc cells, AC50 (uM) modified / 1000, Tox21_110001=Tox21_302509; viability, 1 nM T3 present, 24 h

SMILES	CC50 at 24 h
NC(=O)O [Ammonium carbamate]	> 90 µM

Same assay, conditions: rat, gh3-tre-luc cells, AC50 (uM) modified / 1000, Tox21_110001=Tox21_302734; viability, 1 nM T3 present, 24 h

SMILES	CC50 at 24 h
Oc1ccc(-c2ccccc2)cc1 [4-Phenylphenol]	> 90 µM
